Blank lines part the entries; values can stand above or below the compound they belong to. Calls of active or inactive are those of the source. No cut-off for these calls is given here.
Columns and labels:
[1] = target: T1, Amine oxidase [flavin-containing] A (Homo sapiens, UniProt P21397); test: Inhibition of human recombinant MAO-A
T1 sequence (P21397 whole entry): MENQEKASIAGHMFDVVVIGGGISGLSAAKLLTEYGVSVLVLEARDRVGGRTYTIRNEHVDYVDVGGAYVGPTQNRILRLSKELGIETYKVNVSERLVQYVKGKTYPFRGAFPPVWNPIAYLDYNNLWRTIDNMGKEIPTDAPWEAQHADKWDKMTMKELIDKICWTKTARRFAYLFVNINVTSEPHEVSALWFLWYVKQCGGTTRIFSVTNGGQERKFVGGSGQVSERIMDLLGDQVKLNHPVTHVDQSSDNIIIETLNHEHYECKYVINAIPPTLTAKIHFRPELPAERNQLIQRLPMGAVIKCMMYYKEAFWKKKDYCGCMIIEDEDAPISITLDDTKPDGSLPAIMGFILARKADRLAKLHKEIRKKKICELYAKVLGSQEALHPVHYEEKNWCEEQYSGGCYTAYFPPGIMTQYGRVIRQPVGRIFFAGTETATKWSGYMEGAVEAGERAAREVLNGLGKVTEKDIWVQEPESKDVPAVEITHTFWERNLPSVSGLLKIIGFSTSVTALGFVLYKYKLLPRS

[2] = target: recombinant human DAO (diamine oxidase) (Homo sapiens, UniProt P19801); test: Inhibition of human recombinant DAO
[3] = target: T2, Amine oxidase [flavin-containing] B (Homo sapiens, UniProt P27338); test: Inhibition of human recombinant MAO-B
T2 sequence (P27338 whole entry): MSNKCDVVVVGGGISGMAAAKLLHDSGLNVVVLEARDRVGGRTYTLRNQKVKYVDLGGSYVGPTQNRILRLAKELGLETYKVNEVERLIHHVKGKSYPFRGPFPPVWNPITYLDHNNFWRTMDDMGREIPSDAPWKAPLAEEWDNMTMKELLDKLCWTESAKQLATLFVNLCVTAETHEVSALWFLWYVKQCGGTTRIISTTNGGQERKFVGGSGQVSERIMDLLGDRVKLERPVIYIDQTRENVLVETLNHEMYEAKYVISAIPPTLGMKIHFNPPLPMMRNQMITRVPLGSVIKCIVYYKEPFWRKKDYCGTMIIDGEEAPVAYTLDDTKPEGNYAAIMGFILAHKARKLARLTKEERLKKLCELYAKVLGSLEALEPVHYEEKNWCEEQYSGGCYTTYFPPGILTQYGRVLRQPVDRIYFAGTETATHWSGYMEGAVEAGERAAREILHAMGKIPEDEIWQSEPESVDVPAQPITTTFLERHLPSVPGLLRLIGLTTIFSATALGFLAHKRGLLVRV

[4] = Inhibition of calcium channel (unknown origin) at 10 uM; assay type: toxicity; conditions: human
[5] = Inhibition of potassium channel (unknown origin) at 10 uM; assay type: toxicity; conditions: human
[6] = Inhibition of sodium channel (unknown origin) at 10 uM; assay type: toxicity; conditions: human
[7] = AUC (0 to infinity) in Wistar rat at 3 mg/kg, po; assay type: ADME, organism-based; parameters: time infinity, dose 3 mg/kg, route po; conditions: in vivo
[8] = test system: Mus musculus; test: Antineuroinflammatory activity in PLP-induced autoimmune encephalomyelitis mouse model assessed as reduction in AUC of clinical score at 0.6 to 6 mg/kg/day, po administered once daily via oral gavage starting from day 13 post PLP sensibilization and measured on day 30; assay type: functional, organism-based; conditions: dose 0.6-6 mg/kg/day, time 17.0 day
[9] = target: Lysine-specific histone demethylase 1A (Homo sapiens, UniProt O60341); test: Inhibition of LSD1 (unknown origin)
[10] = Tmax in Wistar rat at 3 mg/kg, po; assay type: ADME, organism-based; conditions: in vivo
[11] = Stability in rat microsomes measured after 1 hr; assay type: ADME, Microsome; conditions: read-out: Stability
[12] = test system: Rattus norvegicus; test: In vivo inhibition of MOA-B in Wistar rat brain at 0.6 mg/kg, po administered as single dose and measured upto 48 hrs; assay type: functional, organism-based
[13] = target: T3, Lysyl oxidase homolog 2 (Homo sapiens, UniProt Q9Y4K0); test: Inhibition of recombinant human LOXL-2
T3 sequence (Q9Y4K0 whole entry): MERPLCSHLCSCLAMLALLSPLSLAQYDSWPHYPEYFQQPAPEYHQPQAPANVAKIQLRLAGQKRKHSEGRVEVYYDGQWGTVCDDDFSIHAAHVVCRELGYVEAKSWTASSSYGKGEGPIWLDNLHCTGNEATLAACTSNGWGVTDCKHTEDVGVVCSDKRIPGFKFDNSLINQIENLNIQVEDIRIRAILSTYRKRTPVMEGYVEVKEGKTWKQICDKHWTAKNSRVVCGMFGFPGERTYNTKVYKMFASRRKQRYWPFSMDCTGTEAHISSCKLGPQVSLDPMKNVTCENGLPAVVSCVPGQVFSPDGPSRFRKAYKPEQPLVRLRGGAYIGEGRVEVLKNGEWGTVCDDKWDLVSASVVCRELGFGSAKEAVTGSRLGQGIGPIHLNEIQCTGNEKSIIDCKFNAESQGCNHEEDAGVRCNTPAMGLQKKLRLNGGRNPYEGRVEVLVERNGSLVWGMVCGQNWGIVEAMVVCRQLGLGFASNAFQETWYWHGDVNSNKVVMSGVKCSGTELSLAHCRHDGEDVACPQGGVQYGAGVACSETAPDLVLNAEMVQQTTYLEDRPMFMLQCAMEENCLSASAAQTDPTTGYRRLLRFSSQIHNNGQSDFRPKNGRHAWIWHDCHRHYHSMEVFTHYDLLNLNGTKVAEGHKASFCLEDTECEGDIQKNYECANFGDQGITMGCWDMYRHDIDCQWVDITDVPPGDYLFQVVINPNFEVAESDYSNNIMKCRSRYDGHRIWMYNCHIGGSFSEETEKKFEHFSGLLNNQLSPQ

[14] = test system: Rattus norvegicus; test: In vivo inhibition of MOA-A in Wistar rat brain at 3 mg/kg, po administered as single dose and measured upto 48 hrs; assay type: functional, organism-based
[15] = test system: Rattus norvegicus; test: In vivo inhibition of SSAO in Wistar rat adipose tissue at 0.6 mg/kg, po administered as single dose and measured upto 48 hrs; assay type: functional, organism-based
[16] = test system: Mus musculus; test: Antiinflammatory activity against mouse air pouch model of carrageenan-induced oedema assessed as reduction in neutrophil number in infiltrate at 0.6 mg/kg, po administered as single dose for 1 hr followed byb carrageenan administration; assay type: functional, organism-based
[17] = Cmax in Wistar rat at 3 mg/kg, po; assay type: ADME, organism-based; parameters: dose 3 mg/kg, route po; conditions: in vivo
[18] = Stability in dog microsomes measured after 1 hr; assay type: ADME, Canis lupus familiaris, Microsome; conditions: read-out: Stability
[19] = target: T4, Cytochrome P450 1A2 (Homo sapiens, UniProt P05177); test: Inhibition of CYP1A2 (unknown origin); assay type: ADME
T4 sequence (P05177 whole entry): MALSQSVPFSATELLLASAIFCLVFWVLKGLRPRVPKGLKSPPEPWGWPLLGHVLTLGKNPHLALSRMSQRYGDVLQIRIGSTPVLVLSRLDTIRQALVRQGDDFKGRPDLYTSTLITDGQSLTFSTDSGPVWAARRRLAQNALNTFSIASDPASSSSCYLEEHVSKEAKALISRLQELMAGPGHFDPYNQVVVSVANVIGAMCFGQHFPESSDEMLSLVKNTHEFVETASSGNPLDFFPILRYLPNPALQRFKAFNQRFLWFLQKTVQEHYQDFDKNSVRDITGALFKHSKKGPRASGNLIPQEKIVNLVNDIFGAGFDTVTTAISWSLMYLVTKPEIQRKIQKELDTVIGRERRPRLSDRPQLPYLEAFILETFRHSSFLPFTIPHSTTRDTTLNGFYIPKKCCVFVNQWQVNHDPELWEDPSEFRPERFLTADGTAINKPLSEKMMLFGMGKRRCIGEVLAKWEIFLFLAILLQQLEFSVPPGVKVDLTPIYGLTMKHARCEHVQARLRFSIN

[20] = Plasma protein binding in dog; assay type: ADME, cell-free, Canis lupus familiaris; conditions: read-out: PPB (converted)
[21] = target: Cytochrome P450 2C9 (Homo sapiens, UniProt P11712); test: Inhibition of CYP2C9 (unknown origin); assay type: ADME
[22] = target: T5, Protein-lysine 6-oxidase (Bos taurus, UniProt P33072); test: Inhibition of bovine aorta LOX; assay type: tissue-based
T5 sequence (P33072 whole entry): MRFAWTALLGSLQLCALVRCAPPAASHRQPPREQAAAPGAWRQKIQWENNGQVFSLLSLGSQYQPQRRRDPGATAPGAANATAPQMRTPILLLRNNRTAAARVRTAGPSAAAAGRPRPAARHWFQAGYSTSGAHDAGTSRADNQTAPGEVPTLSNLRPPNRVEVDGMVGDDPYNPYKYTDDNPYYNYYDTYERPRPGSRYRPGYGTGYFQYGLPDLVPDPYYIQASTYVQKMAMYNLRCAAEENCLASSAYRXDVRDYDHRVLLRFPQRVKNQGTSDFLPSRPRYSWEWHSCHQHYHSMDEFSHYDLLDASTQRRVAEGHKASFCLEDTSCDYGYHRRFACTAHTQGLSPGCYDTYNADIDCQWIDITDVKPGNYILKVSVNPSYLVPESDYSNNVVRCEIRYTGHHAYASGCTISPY

[23] = Stability in human microsomes measured after 1 hr; assay type: ADME, Microsome; conditions: read-out: Stability
[24] = Stability in human hepatocytes assessed as parent compound remaining measured after 1 hr; assay type: ADME, cell-based, Hepatocyte; conditions: read-out: Stability
[25] = target: Cytochrome P450 3A4 (Homo sapiens, UniProt P08684); test: Inhibition of CYP3A4 (unknown origin); assay type: ADME
[26] = target: Cytochrome P450 2D6 (Homo sapiens, UniProt P10635); test: Inhibition of CYP2D6 (unknown origin); assay type: ADME
[27] = target: T6, Amine oxidase [flavin-containing] B (Mus musculus, UniProt Q8BW75); test: Inhibition of mouse muscle MAO-B; assay type: tissue-based, Muscle tissue
T6 sequence (Q8BW75 whole entry): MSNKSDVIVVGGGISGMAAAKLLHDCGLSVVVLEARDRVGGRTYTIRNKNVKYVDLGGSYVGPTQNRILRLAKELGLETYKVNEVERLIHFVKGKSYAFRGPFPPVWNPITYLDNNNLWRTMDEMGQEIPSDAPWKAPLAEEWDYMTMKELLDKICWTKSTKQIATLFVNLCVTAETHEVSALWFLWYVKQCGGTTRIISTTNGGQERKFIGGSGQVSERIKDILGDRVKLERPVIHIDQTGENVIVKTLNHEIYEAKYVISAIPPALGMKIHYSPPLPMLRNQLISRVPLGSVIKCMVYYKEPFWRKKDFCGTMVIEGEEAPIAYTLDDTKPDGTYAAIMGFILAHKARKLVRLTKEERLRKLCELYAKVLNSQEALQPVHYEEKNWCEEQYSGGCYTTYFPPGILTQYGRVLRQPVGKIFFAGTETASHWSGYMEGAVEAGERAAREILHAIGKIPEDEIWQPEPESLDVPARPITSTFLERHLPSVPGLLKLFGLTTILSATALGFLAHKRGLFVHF

[28] = Plasma protein binding in rat; assay type: ADME, cell-free; conditions: read-out: PPB (converted)
[29] = test system: Mus musculus; test: Antiinflammatory activity against mouse air pouch model of carrageenan-induced oedema assessed as reduction in total inflammatory cell volume into air pouch at 0.6 to 6 mg/kg, po administered as single dose for 1 hr followed byb carrageenan administration; assay type: functional, organism-based; conditions: dose 0.6-6 mg/kg
[30] = Plasma protein binding in human; assay type: ADME, cell-free; conditions: read-out: PPB (converted)
[31] = target: Cytochrome P450 2C19 (Homo sapiens, UniProt P33261); test: Inhibition of CYP2C19 (unknown origin)
[32] = Permeability in MDCK-MDR1 cells; assay type: ADME, cell-based, Canis lupus familiaris; conditions: dog

Sequence of Cytochrome P450 2D6 (P10635 whole entry): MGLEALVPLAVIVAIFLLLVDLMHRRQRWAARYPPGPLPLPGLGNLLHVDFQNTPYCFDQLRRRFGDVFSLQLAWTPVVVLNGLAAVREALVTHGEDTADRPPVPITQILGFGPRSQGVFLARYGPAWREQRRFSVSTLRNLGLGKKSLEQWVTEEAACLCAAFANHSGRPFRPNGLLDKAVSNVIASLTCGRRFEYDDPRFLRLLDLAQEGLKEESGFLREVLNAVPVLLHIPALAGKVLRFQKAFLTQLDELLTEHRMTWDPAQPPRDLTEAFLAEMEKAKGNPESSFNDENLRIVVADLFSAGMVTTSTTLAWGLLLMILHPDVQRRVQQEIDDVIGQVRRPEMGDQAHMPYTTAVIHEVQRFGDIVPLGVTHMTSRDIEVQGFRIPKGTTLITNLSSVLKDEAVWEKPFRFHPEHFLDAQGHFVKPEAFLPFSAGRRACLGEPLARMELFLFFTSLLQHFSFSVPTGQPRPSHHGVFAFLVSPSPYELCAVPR
Sequence of Cytochrome P450 2C19 (P33261 whole entry): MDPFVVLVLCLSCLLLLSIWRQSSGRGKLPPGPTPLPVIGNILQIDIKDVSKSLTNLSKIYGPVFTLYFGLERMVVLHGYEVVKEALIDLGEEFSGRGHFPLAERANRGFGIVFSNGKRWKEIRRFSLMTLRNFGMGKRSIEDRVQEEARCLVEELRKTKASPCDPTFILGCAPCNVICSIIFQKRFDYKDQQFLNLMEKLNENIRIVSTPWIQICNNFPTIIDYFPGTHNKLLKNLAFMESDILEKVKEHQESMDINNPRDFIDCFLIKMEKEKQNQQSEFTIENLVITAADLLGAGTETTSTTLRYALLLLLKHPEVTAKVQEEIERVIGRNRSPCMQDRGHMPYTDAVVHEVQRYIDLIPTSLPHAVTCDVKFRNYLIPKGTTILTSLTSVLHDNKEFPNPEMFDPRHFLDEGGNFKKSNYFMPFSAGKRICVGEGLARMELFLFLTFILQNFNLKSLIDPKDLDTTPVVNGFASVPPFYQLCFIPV
Sequence of Cytochrome P450 2C9 (P11712 whole entry): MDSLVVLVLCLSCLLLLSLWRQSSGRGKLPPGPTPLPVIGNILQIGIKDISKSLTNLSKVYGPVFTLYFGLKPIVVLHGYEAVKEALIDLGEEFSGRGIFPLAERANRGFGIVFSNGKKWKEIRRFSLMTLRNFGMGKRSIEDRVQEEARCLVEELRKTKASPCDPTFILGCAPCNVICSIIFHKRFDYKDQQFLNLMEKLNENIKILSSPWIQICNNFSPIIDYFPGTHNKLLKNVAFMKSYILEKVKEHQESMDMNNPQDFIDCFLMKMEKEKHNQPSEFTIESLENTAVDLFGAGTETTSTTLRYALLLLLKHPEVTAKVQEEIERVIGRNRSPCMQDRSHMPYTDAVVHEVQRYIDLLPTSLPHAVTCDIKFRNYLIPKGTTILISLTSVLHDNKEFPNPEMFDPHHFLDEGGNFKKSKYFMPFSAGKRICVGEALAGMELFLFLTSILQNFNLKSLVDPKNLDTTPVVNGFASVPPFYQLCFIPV
Sequence of Cytochrome P450 3A4 (P08684 whole entry): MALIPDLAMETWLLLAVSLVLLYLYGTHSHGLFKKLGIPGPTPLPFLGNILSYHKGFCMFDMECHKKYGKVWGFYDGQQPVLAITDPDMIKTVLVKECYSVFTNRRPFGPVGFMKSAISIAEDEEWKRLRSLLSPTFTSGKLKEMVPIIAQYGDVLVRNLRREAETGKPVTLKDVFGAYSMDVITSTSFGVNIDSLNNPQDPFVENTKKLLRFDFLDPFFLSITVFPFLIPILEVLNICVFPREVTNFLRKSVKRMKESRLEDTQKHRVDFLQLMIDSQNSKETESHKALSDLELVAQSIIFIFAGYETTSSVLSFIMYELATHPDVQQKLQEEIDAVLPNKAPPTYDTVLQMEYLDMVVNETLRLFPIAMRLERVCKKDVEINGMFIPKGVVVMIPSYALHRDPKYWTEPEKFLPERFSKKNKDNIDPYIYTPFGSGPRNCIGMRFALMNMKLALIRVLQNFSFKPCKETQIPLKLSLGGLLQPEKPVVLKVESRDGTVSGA

Compound: Cl.NCC(=CF)C1Cc2ccccc2O1 (mixture of isomers)
IC50 [1]: 460 nM
IC50 [2]: > 30000 nM
inhibition (INH) [4]: Active
inhibition (INH) [5]: Active
inhibition (INH) [6]: Active

Compound: Cl.NC/C(=C\F)[C@H]1Cc2ccccc2O1
AUC(0-inf) [7]: 265 ng·h/mL
Activity [8]: Active
IC50 [1]: 2400 nM
IC50 [9]: > 30000 nM
Tmax [10]: 20 min
remaining at 1 h [11]: 67%
inhibition [12]: Active
IC50 [13]: > 30000 nM
inhibition [14]: Active
inhibition [15]: Active
IC50 [2]: > 30000 nM
Activity [16]: Active
Cmax [17]: 199 ng/mL
remaining at 1 h [18]: 92%
IC50 [19]: > 10000 nM
fraction unbound [20]: 0.42
IC50 [21]: > 10000 nM
IC50 [22]: > 30000 nM
remaining at 1 h [23]: 84%
remaining at 1 h [24]: > 95%
IC50 [25]: > 10000 nM
IC50 [26]: > 10000 nM
IC50 [27]: 0.4 nM
fraction unbound [28]: 0.51
Activity [29]: Active
fraction unbound [30]: 0.24
IC50 [31]: > 10000 nM

Compound: NC/C(=C/F)[C@@H]1Cc2ccccc2O1
IC50 [1]: 100 nM

Compound: NC/C(=C/F)[C@H]1Cc2ccccc2O1
IC50 [1]: 6800 nM
IC50 [2]: > 30000 nM

Compound: Cl.NC/C(=C\F)[C@@H]1Cc2ccccc2O1
IC50 [1]: 750 nM
IC50 [2]: > 30000 nM
permeability [32]: Permeable

The remaining lines, values ahead:

IC50 [1]: 750 nM
IC50 [2]: > 30000 nM
IC50 [3]: 2 nM
Compound: NC/C(=C/F)CCc1ccc(F)cc1 [MOFEGILINE]

IC50 [1]: 4000 nM
IC50 [2]: > 30000 nM
IC50 [3]: 13 nM
Compound: NC/C(=C\F)COc1ccccc1

IC50 [1]: 14000 nM
IC50 [2]: 780 nM
IC50 [3]: 4 nM
Compound: NCC(=CF)COc1ccc(F)cc1 (mixture of isomers)

IC50 [1]: 2500 nM
IC50 [2]: 1600 nM
IC50 [3]: 9 nM
Compound: NCC(=CF)COc1ccccc1 (mixture of isomers)

IC50 [1]: 160 nM
IC50 [2]: > 30000 nM
IC50 [3]: 3 nM
Compound: Cc1ccccc1OC/C(=C/F)CN
